Experimental data published in patent US20210278408A1, “METHODS OF TREATMENT OF CANCER WITH SUBSTITUTED PYRROLE AND PYRAZOLE COMPOUNDS AND DIAGNOSIS OF CANCERS SUSCEPTIBLE TO TREATMENT WITH SUBSTITUTED PYRROLE AND PYRAZOLE COMPOUNDS” (Bantam Pharmaceutical, LLC, priority 2018, published 2021).
Read-outs that look alike come from different tables or passages of the source.

System: 407 cancer cell lines
Assay: Cell viability of cancer cell lines (IC50), CellTiter-Glo Viability Assay, 96 h
Type: cell-based
Settings: Homo sapiens, read-out: Absolute IC50
Experimental: Viability was determined by using the 50% inhibitory concentration (IC50) as determined with the CellTiter-Glo® Viability Assay (Promega).
Experiments were initiated by first thawing and equilibrating the CellTiter-Glo® Buffer to room temperature. The lyophilized CellTiter-Glo® Substrate was also equilibrated to room temperature. The lyophilized substrate was reconstituted with the CellTiter-Glo® buffer to form the CellTiter-Glo® Reagent.
Cells were harvested during the logarithmic growth period, counted, and the cell concentration adjusted to 4.44×10^4 cells/mL using culture medium.
Cells were allowed to grow overnight and the following day, the TO reading was obtained by adding 10 μL culture medium to each well of Plate A. The plate was allowed to equilibrate at room temperature for thirty minutes, after which 50 μL CellTiter-Glo® reagent was added to each well. The contents were mixed for 5 min on an orbital shaker to induce cell lysis. Plates were incubated for 20 minutes to stabilize the luminescent signal and the TO luminescence recorded.
Test plate B was incubated for 96 h in the humidified incubator at 37° C. with 5% CO2.
Following the incubation, the plate was equilibrated at room temperature for thirty minutes. CellTiter-Glo® (50 μL) was added to each well of the plate and contents mixed for five minutes on an orbital shaker to induce cell lysis. The luminescent signal was allowed to stabilize at room temperature for 20 minutes and the luminescence recorded.
IC50 (EC50) was calculated using a dose-response curve, fitted using a nonlinear regression model with a sigmoidal dose response. Survival rate was calculated using the formula:
The Surviving rate (%)=(LumTest article−LumMedium control)/(LumNon-treated−LumMedium control)×100%.
Absolute IC50 (EC50) was calculated according to the dose-response curve generated by the statistical software (GraphPad Prism 5.0).

`Cc1nn(-c2nc(-c3ccc(C(F)(F)F)cc3)c(SC(C)C)s2)c(C(=O)O)c1-c1cccc(F)c1` [Compound A197, 4-(3-fluorophenyl)-1-(5-(isopropylthio)-4-(4-(trifluoromethyl)phenyl)thiazol-2-yl)-3-methyl-1H-pyrazole-5-carboxylic acid] showed an IC50 (DMS-79, DMS 79) of over 30 µM, an IC50 (DMS-114, 96 h, DMS 114 cells, 96 h) of over 30 µM and an IC50 (DOHH-2, 96 h, DOHH-2 cells, 96 h) of 0.31 µM. For the same compound, the IC50 (DU-145, 96 h, DU 145, 96 h) was 0.85 µM, the IC50 (DU-4475, DU4475) was 0.32 µM and the IC50 (DV-90, 96 h, DV-90 cells, 96 h) was over 30 µM. For the same compound, the IC50 (Daoy, 96 h, Daoy cells, 96 h) was over 30 µM, the IC50 (Daudi, 96 h, Daudi cells, 96 h) was 0.81 µM and the IC50 (Detroit 562, 96 h, Detroit 562 cells, 96 h) was over 30 µM. For the same compound, the IC50 (DoTc2-4510, 96 h, DoTc2 4510 cells, 96 h) was over 30 µM, the IC50 (EBC-1, 96 h) was over 30 µM and the IC50 (EJM, 96 h, EJM cells, 96 h) was 3 µM. The IC50 (EOL1, EOL-1) was 0.74 µM, the IC50 (ES-2, 96 h, ES-2 cells, 96 h) was over 30 µM and the IC50 (FTC-133, FTC-133) was 0.84 µM. The IC50 (FaDu, 96 h, FaDu, 96 h) was 0.38 µM, the IC50 (G292, 96 h, G-292 clone A141B1 cells, 96 h) was 1.86 µM and the IC50 (GTL 16, 96 h, GTL-16 cells, 96 h) was over 30 µM. The IC50 (Granta-519, GRANTA-519) was 1 µM, the IC50 (HCC38, HCC38) was over 30 µM and the IC50 (HCC78, 96 h, HCC-78 cells, 96 h) was 0.41 µM. It also gave an IC50 (HCC827, 96 h, HCC827 cells, 96 h) of over 30 µM, an IC50 (HCC1187, 96 h, HCC1187 cells, 96 h) of over 30 µM and an IC50 (HCC1428, HCC1428) of over 30 µM. The IC50 (HCC1569, HCC1569) was over 30 µM, the IC50 (HCC1806, 96 h, HCC1806 cells, 96 h) was over 30 µM and the IC50 (HCC1937, HCC1937) was over 30 µM. For the same compound, the IC50 (HCC1954, HCC1954) was over 30 µM, the IC50 (HCC2218, 96 h) was over 30 µM and the IC50 (HCC2935, HCC2935) was over 30 µM. It also gave an IC50 (HCC4006, 96 h) of 0.46 µM, an IC50 (HCCLM3, 96 h, HCCLM3 cells, 96 h) of over 30 µM and an IC50 (HCT-8, HCT-8) of 0.77 µM. For the same compound, the IC50 (HCT-15, HCT-15) was 0.3 µM, the IC50 (HCT-116, HCT-116) was 0.92 µM and the IC50 (HEC-1-A, 96 h, HEC-1-A cells, 96 h) was over 30 µM. For the same compound, the IC50 (HEC-1B, 96 h, HEC-1-B cells, 96 h) was 0.55 µM, the IC50 (HEL 92.1.7, HEL 92.1.7) was 0.38 µM and the IC50 (HGC-27, 96 h, HGC-27 cells, 96 h) was 0.51 µM. For the same compound, the IC50 (HL-60, HL-60) was 0.99 µM, the IC50 (HLE, 96 h, HLE cells, 96 h) was over 30 µM and the IC50 (HOS, 96 h, HOS cells, 96 h) was over 30 µM. The IC50 (HPAC) was 0.46 µM, the IC50 (HT55, HT-55) was over 30 µM and the IC50 (HT-3, 96 h, HT-3 cells, 96 h) was over 30 µM. It also gave an IC50 (HT-29, HT-29) of 1.27 µM, an IC50 (HT-1080, 96 h) of 1.04 µM and an IC50 (HT-1376, HT-1376) of over 30 µM. The IC50 (HeLa 229, 96 h, HeLa 229 cells, 96 h) was over 30 µM, the IC50 (HeLa, 96 h, HeLa cells, 96 h) was 1.74 µM and the IC50 (Hep3B) was over 30 µM. For the same compound, the IC50 (HepG2, Hep G2) was over 30 µM, the IC50 (HuCCT-1, 96 h, HuCCT1, 96 h) was over 30 µM and the IC50 (HuH-1, HUH-1) was over 30 µM. For the same compound, the IC50 (HuT78, HuT 78) was 0.63 µM, the IC50 (HuTu80, Hutu 80) was 0.86 µM and the IC50 (Huh-7, 96 h, HUH-7 cells, 96 h) was 1.05 µM. It also gave an IC50 (IMR-32, 96 h, IMR-32 cells, 96 h) of 0.8 µM, an IC50 (Ishikawa, 96 h, Ishikawa, 96 h) of 0.29 µM and an IC50 (J82, 96 h, J82 cells, 96 h) of 1.11 µM. For the same compound, the IC50 (JEG-3, 96 h, JEG-3 cells, 96 h) was 1.08 µM, the IC50 (JIMT-1, 96 h, JIMT-1 cells, 96 h) was over 30 µM and the IC50 (JJN-3, 96 h, JJN-3 cells, 96 h) was 1.34 µM. It also gave an IC50 (JVM-2, JVM-2) of 0.73 µM, an IC50 (JVM-3, JVM-3) of 0.27 µM and an IC50 (JeKo-1, 96 h, JeKo-1 cells, 96 h) of 0.79 µM. It also gave an IC50 (Jurkat, Jurkat clone E6-1) of 0.64 µM, an IC50 (K562, K-562) of 0.57 µM and an IC50 (KARPAS-299, 96 h, KARPAS-299 cells, 96 h) of over 30 µM. For the same compound, the IC50 (KARPAS-422, KARPAS-422) was 0.78 µM, the IC50 (KATO III, 96 h, KATO III, 96 h) was over 30 µM and the IC50 (KG-1, KG-1) was 1.05 µM. It also gave an IC50 (KHOS/NP, 96 h, KHOS/NP cells, 96 h) of over 30 µM, an IC50 (KM-H2, 96 h, KMH-2 cells, 96 h) of 1.44 µM and an IC50 (KMS-11, KMS-11) of 0.63 µM. For the same compound, the IC50 (KP-4, 96 h, KP4 cells, 96 h) was 0.53 µM, the IC50 (KYSE-70, KYSE-70) was 0.46 µM and the IC50 (KYSE-150, KYSE-150) was 0.75 µM. The IC50 (KYSE-270, KYSE-270) was 4.78 µM, the IC50 (KYSE-410, 96 h, KYSE-410 cells, 96 h) was over 301 µM and the IC50 (Kasumi 1, Kasumi-1) was 1.09 µM. For the same compound, the IC50 (L-363, L-363) was 0.88 µM, the IC50 (LN-18, 96 h, LN-18 cells, 96 h) was 0.52 µM and the IC50 (LN-229, 96 h, LN-229 cells, 96 h) was over 30 µM. For the same compound, the IC50 (LNCaP-Clone-FGC, 96 h, LNCaP clone FGC, 96 h) was 0.18 µM, the IC50 (LP-1, LP-1) was 0.49 µM and the IC50 (LS180, LS 180) was over 30 µM. The IC50 (LS-123, 96 h, LS123 cells, 96 h) was over 30 µM, the IC50 (LS-411N, LS411N) was 0.7 µM and the IC50 (LS-513, 96 h, LS513 cells, 96 h) was 0.7 µM. For the same compound, the IC50 (LS-1034, 96 h, LS1034 cells, 96 h) was over 30 µM, the IC50 (LoVo) was over 30 µM and the IC50 (MCF7, MCF7) was over 30 µM. The IC50 (MDA-MB-231, MDA-MB-231) was over 30 µM, the IC50 (MDA-MB-415, MDA-MB-415) was over 30 µM and the IC50 (MDA-MB-436, 96 h) was over 30 µM. It also gave an IC50 (MDA-MB-453, MDA-MB-453) of over 30 µM, an IC50 (MDA-MB-468, 96 h, MDA-MB-468 cells, 96 h) of 0.52 µM and an IC50 (ME-180, 96 h, ME-180 cells, 96 h) of 0.55 µM. The IC50 (MEG-01, MEG-01) was 1.56 µM, the IC50 (MES-SA, 96 h, MES-SA cells, 96 h) was 0.49 µM and the IC50 (MES-SA/Dx5, 96 h, MES-SA/DX5 cells, 96 h) was 0.34 µM. For the same compound, the IC50 (MFE-296, 96 h, MFE-296 cells, 96 h) was over 30 µM, the IC50 (MHCC97H, MHCC97-H) was 3.25 µM and the IC50 (MIA PaCa-2, MIA PaCa-2) was 2.89 µM. It also gave an IC50 (MKN-1, 96 h, MKN1 cells, 96 h) of 2.93 µM, an IC50 (MKN-45, 96 h, MKN45, 96 h) of over 30 µM and an IC50 (MKN-74, 96 h, MKN74 cells, 96 h) of over 30 µM. It also gave an IC50 (ML-2, ML-2) of 0.46 µM, an IC50 (MM1.S, MM.1S) of over 30 µM and an IC50 (MOLM-13, 96 h, MOLM-13 cells, 96 h) of 0.87 µM. The IC50 (MOLP-8, 96 h, MOLP8 cells, 96 h) was 0.99 µM, the IC50 (MOLT-4, Molt-4) was 0.62 µM and the IC50 (MSTO-211H, 211 h, MsTo 211H) was 0.55 µM. For the same compound, the IC50 (MV4-11, 96 h, MV-4-11 cells, 96 h) was 0.32 µM, the IC50 (MX1, MX-1) was over 30 µM and the IC50 (NALM-6, NALM-6) was 0.7 µM. The IC50 (NB-4, 96 h, NB4 cells, 96 h) was 0.11 µM, the IC50 (NCI-H23, 96 h, NCI-H23 cells, 96 h) was 0.76 µM and the IC50 (NCI-H69, 96 h, NCI-H69 cells, 96 h) was over 30 µM. The IC50 (NCI-H82, 96 h) was 0.76 µM, the IC50 (NCI-H146, 96 h, NCI-H146 cells, 96 h) was over 30 µM and the IC50 (NCI-H187, NCI-H187) was 0.33 µM. For the same compound, the IC50 (NCI-H209, 96 h, NCI-H209 cells, 96 h) was over 30 µM and the IC50 (NCI-H226, NCI-H226) was 2.08 µM.
